Values quoted from earlier work as cited in patent publication EP1479382A1, “Oral pharmaceutical compositions containing taxanes and methods for treatment employing the same” (IVAX Research, Inc., priority 1999, dated 2000).
Where two headings read alike, the source gives them in different places.

Compound: CC(=O)O[C@H]1C(=O)[C@@]2(C)[C@H]([C@H](OC(=O)c3ccccc3)[C@]3(O)C[C@H](OC(=O)[C@H](O)[C@@H](NC(=O)c4ccccc4)c4ccccc4)C(C)=C1C3(C)C)[C@]1(OC(C)=O)CO[C@@H]1C[C@@H]2O [paclitaxel]
- inhibition of tubulin disassembly occurs at levels of (tubulin): about 0.1 µM
- inhibition of tubulin disassembly occurs at levels of (tubulin; same level expressed in ng/ml): about 85 ng/ml
- inhibition of protein isoprenylation occurs at levels of (protein isoprenylation): about 0.03 µM
- inhibition of protein isoprenylation occurs at levels of (protein isoprenylation; same level expressed in ng/ml): about 25 ng/ml
